Columns and labels:
[1] = tested on: MOLM-14 D835Y (endogenous FLT3 ITD and transfected FLT3 D835Y); assay: MOLM-14 D835Y cell proliferation assay (CellTiter-Glo); assay type: cell-based; settings: Homo sapiens, MOLM-14, 72 h; 3 d growth, GMean
Summary of the method: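 Three-day proliferation at 37 °C/5% CO2 of FLT3-ITD MOLM-14 lines with D835Y or F691L mutation, seeded 1×10^4 per well. Compounds at eight points, top 1 μM final, 0.2% DMSO. ATP luminescence (CellTiter-Glo) gives IC50.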

BA/F3-FLT3-ITD + D835Y = target: T1, BA/F3-FLT3-ITD + D835Y (Homo sapiens, UniProt P36888, D835Y, cells depend on it, form not given); assay: Engineered BA/F3 cell growth assay, FLT3 ITD/D835Y; assay type: cell-based, murine; settings: 3 d growth
T1 sequence (P36888 with tags, fused parts or gaps INS600HVDFREYEYD/D835Y): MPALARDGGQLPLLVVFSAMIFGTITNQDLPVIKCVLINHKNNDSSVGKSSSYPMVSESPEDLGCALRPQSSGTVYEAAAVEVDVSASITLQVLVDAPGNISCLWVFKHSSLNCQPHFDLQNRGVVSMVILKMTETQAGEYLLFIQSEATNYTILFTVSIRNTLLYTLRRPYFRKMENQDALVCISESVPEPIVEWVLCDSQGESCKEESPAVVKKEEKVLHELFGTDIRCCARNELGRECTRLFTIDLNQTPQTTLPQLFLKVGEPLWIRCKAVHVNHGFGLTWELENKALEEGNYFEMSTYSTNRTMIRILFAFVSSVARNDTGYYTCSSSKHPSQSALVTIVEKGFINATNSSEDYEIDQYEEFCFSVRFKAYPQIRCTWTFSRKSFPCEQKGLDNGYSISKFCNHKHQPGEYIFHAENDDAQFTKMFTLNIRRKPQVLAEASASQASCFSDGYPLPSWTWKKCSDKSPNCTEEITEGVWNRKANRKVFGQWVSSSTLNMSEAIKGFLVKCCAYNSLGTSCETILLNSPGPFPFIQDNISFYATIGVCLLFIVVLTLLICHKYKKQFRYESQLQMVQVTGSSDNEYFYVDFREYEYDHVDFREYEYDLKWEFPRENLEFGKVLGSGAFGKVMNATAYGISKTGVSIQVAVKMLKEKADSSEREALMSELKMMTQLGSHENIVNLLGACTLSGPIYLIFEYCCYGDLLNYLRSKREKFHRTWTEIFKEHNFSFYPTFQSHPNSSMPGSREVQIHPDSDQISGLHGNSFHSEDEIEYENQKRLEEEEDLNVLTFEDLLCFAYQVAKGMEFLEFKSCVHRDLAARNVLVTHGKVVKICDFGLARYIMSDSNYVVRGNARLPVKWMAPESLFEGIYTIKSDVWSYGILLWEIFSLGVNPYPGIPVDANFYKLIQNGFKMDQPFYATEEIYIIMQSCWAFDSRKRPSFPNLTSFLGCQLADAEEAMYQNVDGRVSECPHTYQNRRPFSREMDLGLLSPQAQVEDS
Summary of the method: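 IC50 derived from CellTiter-Glo ATP luminescence after 3 days at 37 °C, 5% CO2, over eight 1:3 dilutions from 1 μM (0.2% DMSO final). Cells: IL-3-independent murine Ba/F3 expressing full-length FLT3 ITD/D835Y, 1×10^4 per well.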

| SMILES | IC50 [1] [µM] | GI50 (BA/F3-FLT3-ITD + D835Y) [µM] |
| --- | --- | --- |
| Cn1cc(Nc2ncc(-c3ccc(CC(=O)Nc4ccnc(C(F)(F)F)c4)c(F)c3)cn2)cn1 [Compound P-0083, 2-[2-fluoro-4-[2-[(1-methylpyrazol-4-yl)amino]pyrimidin-5-yl]phenyl]-N-[2-(trifluoromethyl)-4-pyridyl]acetamide] | 0.0001 to 10 | 0.0001 to 10 |
| O=C(Cc1ccc(-c2cnc3[nH]cc(F)c3c2)cc1F)Nc1cncc(C(F)(F)F)c1 [Compound P-0053, 2-[2-fluoro-4-(3-fluoro-1H-pyrrolo[2,3-b]pyridin-5-yl)phenyl]-N-[5-(trifluoromethyl)-3-pyridyl]acetamide] | 0.0001 to 10 | 0.0001 to 10 |
| Cn1cc(Nc2ncc(-c3ccc(CC(=O)Nc4cncc(C(F)(F)F)c4)c(F)c3)cn2)cn1 [Compound P-0084, 2-[2-fluoro-4-[2-[(1-methylpyrazol-4-yl)amino]pyrimidin-5-yl]phenyl]-N-[5-(trifluoromethyl)-3-pyridyl]acetamide] | 0.0001 to 10 | 0.0001 to 10 |
| COc1ncc(NC(=O)Cc2ccc(-c3cnc(Nc4cn[nH]c4)nc3)cc2)cc1C(F)(F)F [Compound P-0025, N-[6-methoxy-5-(trifluoromethyl)-3-pyridyl]-2-[4-[2-(1H-pyrazol-4-ylamino)pyrimidin-5-yl]phenyl]acetamide] | 0.0001 to 10 | 0.0001 to 10 |
| CC(C)(C)c1ccc(NC(=O)Cc2ccc(-c3cnc4[nH]cc(F)c4c3)cc2F)cn1 [Compound P-0043, N-(6-tert-butyl-3-pyridyl)-2-[2-fluoro-4-(3-fluoro-1H-pyrrolo[2,3-b]pyridin-5-yl)phenyl]acetamide] | 0.0001 to 10 | 0.0001 to 10 |
| O=C(Cc1ccc(-c2cnc(Nc3cnn4ccccc34)nc2)cc1)Nc1cncc(C(F)(F)F)c1 [Compound P-0074, 2-[4-[2-(pyrazolo[1,5-a]pyridin-3-ylamino)pyrimidin-5-yl]phenyl]-N-[5-(trifluoromethyl)-3-pyridyl]acetamide] | 0.0001 to 10 | 0.0001 to 10 |
| COc1nn(C[C@H](C)O)cc1Nc1ncc(-c2ccc(CC(=O)Nc3cncc(C(F)(F)F)c3)c(F)c2)cn1 [Compound P-0050, 2-[2-fluoro-4-[2-[[1-[(2S)-2-hydroxypropyl]-3-methoxy-pyrazol-4-yl]amino]pyrimidin-5-yl]phenyl]-N-[5-(trifluoromethyl)-3-pyridyl]acetamide] | 0.0001 to 10 | 0.0001 to 10 |
| O=C(Cc1ccc(-c2cnc3[nH]cc(Cl)c3n2)cc1F)Nc1cnc(Cl)c(C(F)(F)F)c1 [Compound P-0060, 2-[4-(7-chloro-5H-pyrrolo[2,3-b]pyrazin-2-yl)-2-fluoro-phenyl]-N-[6-chloro-5-(trifluoromethyl)-3-pyridyl]acetamide] | 0.0001 to 10 | 0.0001 to 10 |
| O=C(Cc1ccc(-c2cnc(Nc3cnn4ccccc34)nc2)c(F)c1)Nc1cncc(C(F)(F)F)c1 [Compound P-0071, 2-[3-fluoro-4-[2-(pyrazolo[1,5-a]pyridin-3-ylamino)pyrimidin-5-yl]phenyl]-N-[5-(trifluoromethyl)-3-pyridyl]acetamide] | 0.0001 to 10 | 0.0001 to 10 |
| O=C(Cc1ccc(-c2cnc3[nH]nc(C4CC4)c3c2)cc1)Nc1cncc(C(F)(F)F)c1 [Compound P-0073, 2-[4-(3-cyclopropyl-1H-pyrazolo[3,4-b]pyridin-5-yl)phenyl]-N-[5-(trifluoromethyl)-3-pyridyl]acetamide] | 0.0001 to 10 | 0.0001 to 10 |
| Cc1ncc(NC(=O)Cc2ccc(-c3cnc4[nH]cc(Cl)c4n3)cc2)cc1C(F)(F)F [Compound P-0079, 2-(4-(7-chloro-5H-pyrrolo[2,3-b]pyrazin-2-yl)phenyl)-N-(6-methyl-5-(trifluoromethyl)pyridin-3-yl)acetamide] | 0.0001 to 10 | 0.0001 to 10 |
| Cc1ncc(NC(=O)Cc2ccc(-c3cnc4[nH]c(Cl)cc4c3)cc2F)cc1C(F)(F)F [Compound P-0067, 2-[4-(2-chloro-1H-pyrrolo[2,3-b]pyridin-5-yl)-2-fluoro-phenyl]-N-[6-methyl-5-(trifluoromethyl)-3-pyridyl]acetamide] | 0.0001 to 10 | 0.0001 to 10 |
